The record followed here is patent publication US9440952B2, “Compounds inhibiting leucine-rich repeat kinase enzyme activity” (Merck Sharp & Dohme Corp., priority 2013, dated 2016).

The target in the assay is T1, LRRK2(G2019S mutation, GST-LRRK2(amino acids 970-2527)) (Homo sapiens, UniProt Q5S007, G2019S).
T1 construct: GST-LRRK2(amino acids 970-2527); GST (N); purchased Life Technologies Corporation
Nature of the assay: LRRK2 Km ATP LanthaScreen Assay. It is filed as biochemical. Here is the method: Unless otherwise noted, all LRRK2 IC50 data presented in tables refers to the LRRK2 Km ATP LanthaScreen™ Assay that is described in the Biological Assay section.
The data presented for the 5 mM and Km ATP LanthaScreen™ Assay represents mean IC50 values based on several test results and may have reasonable. deviations depending on the specific conditions and reagents used. Reagents for the LRRK2 5 mM and Km ATP LanthaScreen™ Assay were purchased from Life Technologies Corporation.
Results are analysed using Assay Data Analyzer.

[1] abbreviates: Km ATP LanthaScreen, mean IC50 of several tests, read-out: LRRK2 IC50.
[2] abbreviates: Km ATP LanthaScreen Assay; LRRK2 G2019S; mean IC50 values; Examples 185-215; read-out: LRRK2 IC5).
Where [3] appears, read: Km ATP LanthaScreen Assay, LRRK2 G2019S, mean IC50 values, read-out: LRRK2 IC50.

Where two headings read alike, the source gives them in different places.

T1 sequence (Q5S007 970-2527 G2019S): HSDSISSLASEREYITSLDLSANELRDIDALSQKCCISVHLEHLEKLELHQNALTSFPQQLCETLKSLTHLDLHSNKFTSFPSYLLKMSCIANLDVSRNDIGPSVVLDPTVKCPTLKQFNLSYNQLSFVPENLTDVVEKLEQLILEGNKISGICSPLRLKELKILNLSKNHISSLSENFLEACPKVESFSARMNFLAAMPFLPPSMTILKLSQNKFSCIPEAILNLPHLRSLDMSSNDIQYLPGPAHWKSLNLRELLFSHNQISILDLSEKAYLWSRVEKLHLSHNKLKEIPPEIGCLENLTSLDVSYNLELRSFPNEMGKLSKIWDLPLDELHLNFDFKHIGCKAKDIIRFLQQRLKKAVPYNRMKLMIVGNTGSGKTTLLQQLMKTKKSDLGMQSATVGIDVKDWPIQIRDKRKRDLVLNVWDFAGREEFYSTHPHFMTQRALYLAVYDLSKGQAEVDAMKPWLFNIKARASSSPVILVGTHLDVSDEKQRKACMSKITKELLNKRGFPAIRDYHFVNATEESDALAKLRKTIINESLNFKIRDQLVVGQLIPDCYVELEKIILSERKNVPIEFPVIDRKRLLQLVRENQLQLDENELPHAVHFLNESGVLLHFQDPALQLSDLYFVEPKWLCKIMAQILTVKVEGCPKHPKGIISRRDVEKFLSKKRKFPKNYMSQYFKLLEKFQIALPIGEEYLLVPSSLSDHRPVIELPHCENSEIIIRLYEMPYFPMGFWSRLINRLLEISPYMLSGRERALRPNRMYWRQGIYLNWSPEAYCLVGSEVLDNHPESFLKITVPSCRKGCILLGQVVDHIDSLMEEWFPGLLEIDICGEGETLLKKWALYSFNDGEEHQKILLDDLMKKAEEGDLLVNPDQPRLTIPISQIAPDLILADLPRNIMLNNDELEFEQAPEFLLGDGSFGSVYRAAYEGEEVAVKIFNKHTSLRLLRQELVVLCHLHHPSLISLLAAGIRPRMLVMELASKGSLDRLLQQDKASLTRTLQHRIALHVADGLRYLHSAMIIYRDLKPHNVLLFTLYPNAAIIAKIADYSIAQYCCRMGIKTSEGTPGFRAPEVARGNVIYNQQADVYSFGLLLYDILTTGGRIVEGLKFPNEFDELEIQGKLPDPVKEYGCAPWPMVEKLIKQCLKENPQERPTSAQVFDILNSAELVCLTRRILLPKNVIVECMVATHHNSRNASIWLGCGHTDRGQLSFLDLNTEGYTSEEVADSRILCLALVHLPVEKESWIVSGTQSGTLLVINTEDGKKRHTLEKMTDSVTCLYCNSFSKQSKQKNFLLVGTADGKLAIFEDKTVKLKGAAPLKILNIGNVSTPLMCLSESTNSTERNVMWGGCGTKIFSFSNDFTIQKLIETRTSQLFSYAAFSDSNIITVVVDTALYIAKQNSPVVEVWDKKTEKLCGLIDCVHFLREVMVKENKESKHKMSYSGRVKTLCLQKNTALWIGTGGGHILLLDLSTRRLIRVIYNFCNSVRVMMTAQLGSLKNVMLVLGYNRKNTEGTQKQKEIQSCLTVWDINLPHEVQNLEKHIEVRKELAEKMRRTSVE

For `COc1ccccc1Nc1cc(-c2n[nH]c3ccc(Nc4cccc(S(C)(=O)=O)c4)cc23)ccn1` [Example 113], the IC50 under setting [1] came out at 0.422 µM.

On to `CC(C)Oc1ccc2[nH]nc(-c3ccnc(N4CCN(c5nccs5)CC4)c3)c2c1` [Example 203], for which the IC50 under setting [2] was 0.0134 µM.

As for `CC(C)Oc1ccc2[nH]nc(-c3ccnc(NC(=O)C4CC(F)(F)C4)c3)c2c1` [Example 166], the IC50 under setting [3] came to 0.0735 µM.

Regarding `CC(C)Oc1ccc2[nH]nc(-c3ccnc(NS(C)(=O)=O)c3)c2c1` [Example 395], the IC50 under setting [1] worked out at 0.02 µM.

For `FC(F)(F)Oc1ccc2[nH]nc(-c3ccnc(N4CCN(c5ncccn5)CC4)c3)c2c1` [Example 235], the IC50 under setting [3] was determined as 0.476 µM.

Regarding `c1cc(-c2n[nH]c3ccc(-c4ncco4)cc23)cc(N2CCOCC2)n1` [Example 325], under setting [1], the IC50 was 0.0069 µM.

As for `CS(=O)(=O)c1cccc(Nc2ccc3[nH]nc(-c4ccnc(N5CCOCC5)c4)c3c2)c1` [Example 108], the IC50 under setting [1] amounted to 0.0093 µM.

Turning to `CO[C@@H]1CCN(c2cc(-c3n[nH]c4ccc(OC(C)C)cc34)ccn2)C1` [Example 178], the IC50 under setting [3] came to 0.005 µM.

For the molecule `Cn1cc(-c2ccc3[nH]nc(-c4ccnc(N5CC(F)(F)C5)c4)c3c2)cn1` [Example 274], the IC50 under setting [1] was 0.0042 µM.

Turning to `COc1ccc(-c2ccc3[nH]nc(-c4ccnc(N5CCOCC5)c4)c3c2)cn1` [Ex 329], the IC50 under setting [1] amounted to 0.014 µM.

Consider `CC(C)Oc1ccc2[nH]nc(-c3ccnc(N4CCCC4=O)c3)c2c1` [Example 302], for which the IC50 under setting [1] was determined as 0.024 µM.

With `CC(C)Oc1ccc2[nH]nc(-c3ccnc(N4CC5(COC5)C4)c3)c2c1` [Example 283], the IC50 under setting [1] came to 0.0059 µM.

On to `CC(C)Oc1ccc2[nH]nc(-c3ccnc(NS(=O)(=O)c4ccc5c(c4)N(C)C(=O)CO5)c3)c2c1` [Example 262], for which, under setting [1], the IC50 is 0.0434 µM.

For `CC(C)Oc1ccc2[nH]nc(-c3ccnc(NC(=O)C(C)c4ccccc4)c3)c2c1` (stereo not shown) [Example 151], the IC50 under setting [3] turned out to be 0.0519 µM.

In the case of `c1cc(-c2n[nH]c3ccc(OCC4CC4)cc23)cc(N2CCOCC2)n1` [Example 373], the IC50 under setting [1] stood at 0.084 µM.

As for `OCCc1cc2c(-c3ccnc(N4CCOCC4)c3)n[nH]c2cc1F` [Example 349], the IC50 under setting [1] was found to be 0.027 µM.

In the case of `CCOc1ccc2[nH]nc(-c3ccnc(N4CCS(=O)(=O)CC4)c3)c2c1` [Example 298], under setting [1], the IC50 was 0.051 µM.

As to `CC(C)Oc1ccc2[nH]nc(-c3ccnc(N4Cc5cccnc5C4)c3)c2c1` [Example 208], the IC50 under setting [2] amounted to 0.0175 µM.

As to `OC1CCN(c2cc(-c3n[nH]c4ccc(OC(F)(F)F)cc34)ccn2)CC1` [Example 231], under setting [3], the IC50 stood at 0.0827 µM.

In the case of `Fc1cc2[nH]nc(-c3ccnc(N4CCOCC4)c3)c2cc1-c1ccn[nH]1` [Example 351], under setting [1], the IC50 was 0.0011 µM.

Consider `CC(C)Oc1ccc2[nH]nc(-c3ccnc(N4CCCC4)c3)c2c1` [Example 201], for which, under setting [2], the IC50 was determined as 0.005 µM.

As for `CCOc1ccc2[nH]nc(-c3ccnc(NCCOC)c3)c2c1` [Example 354], the IC50 under setting [1] came to 0.0062 µM.

`FC1(F)CN(c2cc(-c3n[nH]c4ccc(OC(F)(F)F)cc34)ccn2)C1` [Example 247]: the IC50 under setting [3] amounted to 0.369 µM.

On to `COc1ccnc(F)c1-c1ccc2[nH]nc(-c3ccnc(N4CCN(S(C)(=O)=O)CC4)c3)c2c1` [Example 366], for which the IC50 under setting [1] was < 0.0006 µM.

On to `COCCN(C)c1cc(-c2n[nH]c3ccccc23)ccn1` [Example 3], for which, under setting [3], the IC50 stood at 0.048 µM.

With `CCOc1ccc2[nH]nc(-c3ccnc(N4CCN(C)C(=O)C4)c3)c2c1` [Example 217], the IC50 under setting [3] worked out at 0.0049 µM.

Turning to `Cc1ncc(-c2ccc3[nH]nc(-c4ccnc(N5CC(F)C5)c4)c3c2)n1C` [Example 307], under setting [1], the IC50 was determined as 0.0021 µM.

With `Cn1cc(-c2ccc3[nH]nc(-c4ccnc(N5CCCC5)c4)c3c2)cn1` [Example 267], the IC50 under setting [1] came out at 0.0029 µM.

For `CC(C)Oc1ccc2[nH]nc(-c3ccnc(NCCc4ccccn4)c3)c2c1` [Example 133], the IC50 under setting [3] was found to be 0.0008 µM.

For `O=C1CN(c2cc(-c3n[nH]c4ccccc34)ccn2)CCCN1` [Example 48], the IC50 under setting [3] was 0.054 µM.

With `OCCC1CN(c2cc(-c3n[nH]c4ccccc34)ccn2)CCO1` (stereo not shown) [Example 66], the IC50 under setting [3] came out at 0.015 µM.

Consider `CCS(=O)(=O)c1ccc2[nH]nc(-c3ccnc(N4CCOCC4)c3)c2c1` [Example 371], for which the IC50 under setting [1] amounted to 0.048 µM.

In the case of `CO[C@H]1CN(c2cc(-c3n[nH]c4ccc(-c5cnn(C)c5)cc34)ccn2)C[C@@H]1O` [Example 269], under setting [1], the IC50 is 0.0042 µM.

In the case of `COc1cccc(S(=O)(=O)Nc2cc(-c3n[nH]c4ccc(OC(C)C)cc34)ccn2)c1` [Example 257], the IC50 under setting [1] is 0.0784 µM.

In the case of `OC1(c2cccnc2)CCN(c2cc(-c3n[nH]c4ccccc34)ccn2)CC1` [Example 26], the IC50 under setting [3] is 0.019 µM.

In the case of `CC(C)Oc1ccc2[nH]nc(-c3ccnc(NC(=O)Cc4ccsc4)c3)c2c1` [Example 157], under setting [3], the IC50 amounted to 0.0344 µM.

Take `OC[C@H]1CCN(c2cc(-c3n[nH]c4ccc(OC(F)(F)F)cc34)ccn2)C1` [Example 248]: the IC50 under setting [3] was 0.096 µM.

`Cn1cc(-c2ccc3[nH]nc(-c4ccnc(N5CC(O)C5)c4)c3c2)cn1` [Example 375]: under setting [1], the IC50 was < 0.0006 µM.

Turning to `CC(C)Oc1ccc2[nH]nc(-c3ccnc(N4CCC(n5ccnc5)C4)c3)c2c1` (stereo not shown) [Example 171], the IC50 under setting [3] stood at 0.0031 µM.

Take `FC(F)(F)Oc1ccc2[nH]nc(-c3ccnc(N4CCN(n5cccn5)CC4)c3)c2c1` [Example 239]: the IC50 under setting [3] was determined as 0.233 µM.

Regarding `OCC1CN(c2cc(-c3n[nH]c4ccccc34)ccn2)CCCO1` (stereo not shown) [Example 37], under setting [3], the IC50 came to 0.064 µM.

In the case of `NC(=O)C1CCCN(c2cc(-c3n[nH]c4ccccc34)ccn2)C1` (stereo not shown) [Example 71], the IC50 under setting [3] was found to be 0.016 µM.

For `CCN(CC)CCOc1ccc2[nH]nc(-c3ccnc(N4CCOCC4)c3)c2c1` [Example 80], the IC50 under setting [3] is 0.037 µM.

As for `CC(C)Oc1ccc2[nH]nc(-c3ccnc(N4CC[S+]([O-])CC4)c3)c2c1` [Example 191], the IC50 under setting [2] worked out at 0.0074 µM.

Take `O=C1CN(c2cc(-c3n[nH]c4ccccc34)ccn2)CCN1` [Example 49]: under setting [3], the IC50 is 0.023 µM.

Consider `Cc1nc2c(o1)CCN(c1cc(-c3n[nH]c4ccc(OC(C)C)cc34)ccn1)C2` [Example 197], for which the IC50 under setting [2] was determined as 0.0128 µM.

In the case of `CN1CCN(c2cc(-c3n[nH]c4ccc(OC(F)(F)F)cc34)ccn2)CC1` [Example 234], the IC50 under setting [3] came out at 0.0825 µM.

As for `Oc1nccnc1-c1ccc2[nH]nc(-c3ccnc(N4CCOCC4)c3)c2c1` [Example 389], the IC50 under setting [1] is < 0.0006 µM.

As to `CC(C)Oc1ccc2[nH]nc(-c3ccnc(N4CCCS(=O)(=O)CC4)c3)c2c1` [Example 188], the IC50 under setting [2] stood at 0.0214 µM.

In the case of `c1cc(-c2ccc3[nH]nc(-c4ccnc(N5CCOCC5)c4)c3c2)ccn1` [Example 97], the IC50 under setting [1] amounted to 0.0137 µM.

`CC(C)Oc1ccc2[nH]nc(-c3ccnc(N4CC[C@H](O)C4)c3)c2c1` [Example 181]: the IC50 under setting [3] turned out to be 0.0082 µM.

As to `c1cnc(-c2ccc3[nH]nc(-c4ccnc(N5CCOCC5)c4)c3c2)cn1` [Example 324], the IC50 under setting [1] is 0.0011 µM.

Regarding `F[C@H]1COC[C@@H]1Nc1cc(-c2n[nH]c3ccccc23)ccn1` [Example 38], under setting [3], the IC50 was 0.079 µM.

For `OCCC1CN(c2cc(-c3n[nH]c4ccc(CO)cc34)ccn2)CCO1` (stereo not shown) [Example 128], the IC50 under setting [3] came to 0.01 µM.

Regarding `COC1CN(c2cc(-c3n[nH]c4ccccc34)ccn2)C1` [Example 67], under setting [3], the IC50 is 0.031 µM.

As for `c1cc(-c2ccc3[nH]nc(-c4ccnc(N5CCOCC5)c4)c3c2)cnn1` [Example 319], the IC50 under setting [1] came out at 0.0082 µM.

Consider `c1ccc2c(-c3ccnc(NC4COC4)c3)n[nH]c2c1` [Example 33], for which the IC50 under setting [3] was determined as 3.51 µM.

On to `CC(C)Oc1ccc2[nH]nc(-c3ccnc(N4CCN(c5ccccn5)CC4)c3)c2c1` [Example 200], for which, under setting [2], the IC50 was found to be 0.0109 µM.

`CCOc1ccc2[nH]nc(-c3ccnc(N[C@@H](C)CO)c3)c2c1` [Example 358]: under setting [1], the IC50 amounted to 0.016 µM.

`CN1CCC(CNc2cc(-c3n[nH]c4ccccc34)ccn2)C1` (stereo not shown) [Example 54]: the IC50 under setting [3] stood at 0.047 µM.

For the molecule `Cc1nnc(C2CCN(c3cc(-c4n[nH]c5ccc(OC(C)C)cc45)ccn3)CC2)o1` [Example 215], the IC50 under setting [2] is 0.006 µM.

Consider `CN(C)c1cc(-c2n[nH]c3ccccc23)ccn1` [Example 30], for which the IC50 under setting [3] is 0.033 µM.

Regarding `Cc1ccnc(-c2ccc3[nH]nc(-c4ccnc(N5CCOCC5)c4)c3c2)n1` [Example 336], the IC50 under setting [1] came to 0.033 µM.

In the case of `CC(C)Oc1ccc2[nH]nc(-c3ccnc(N4C[C@H](F)[C@@H](F)C4)c3)c2c1` [Example 174], under setting [3], the IC50 came out at 0.0066 µM.

For `CCc1nnc2n1CCN(c1cc(-c3n[nH]c4ccc(OC(F)(F)F)cc34)ccn1)C2` [Example 249], under setting [3], the IC50 was found to be 0.19 µM.

As for `CC(O)Cc1cc2c(-c3ccnc(N4CCOCC4)c3)n[nH]c2cc1F` (stereo not shown) [Example 350], the IC50 under setting [1] was 0.076 µM.

In the case of `CC(C)Oc1ccc2[nH]nc(-c3ccnc(N4CCC(n5cccn5)CC4)c3)c2c1` [Example 173], the IC50 under setting [3] came out at 0.0049 µM.

Turning to `CC(C)Oc1ccc2[nH]nc(-c3ccnc(N4C[C@@H]5C[C@H]4CO5)c3)c2c1` [Example 176], the IC50 under setting [3] was determined as 0.0071 µM.

On to `CC(C)CCC(=O)Nc1cc(-c2n[nH]c3ccc(OC(C)C)cc23)ccn1` [Example 149], for which the IC50 under setting [3] turned out to be 0.0796 µM.

In the case of `c1cnnc(-c2ccc3[nH]nc(-c4ccnc(N5CCOCC5)c4)c3c2)c1` [Example 326], the IC50 under setting [1] worked out at 0.0064 µM.

With `c1ccc2c(-c3ccnc(NC4CCCOC4)c3)n[nH]c2c1` (stereo not shown) [Example 74], the IC50 under setting [3] worked out at 0.057 µM.

As to `COC1CN(Cc2ccc3[nH]nc(-c4ccnc(N5CCOCC5)c4)c3c2)C1` [Example 91], under setting [3], the IC50 was found to be 0.161 µM.

As for `CC(C)Oc1ccc2[nH]nc(-c3ccnc(N4CCN(C)C(=O)C4)c3)c2c1` [Example 312], the IC50 under setting [1] was found to be 0.0026 µM.
